Assay results: US20200131196A1 (Mount Tam Therapeutics, Inc., priority 2017, published 2020)

System: SK-NEP-1
Experiment: OncoPanel cell proliferation assay, SK-NEP-1
Conditions: for EC50: SK-NEP-1, read-out: Cell Count EC50; for GI50: SK-NEP-1, read-out: Cell Count GI50; for Cell Count Activity Area: SK-NEP-1
Procedure: Cells were seeded into 384-well plates and incubated in a humidified atmosphere of 5% CO2 at 37° C. Compounds were added the day following cell seeding. At the same time, a time zero untreated cell plate was generated. After a 3-day incubation period, cells were fixed and stained to allow fluorescence imaging of nuclei. Compounds (1 mM stock solutions) were serially diluted in half-log steps from the highest test concentration (1 micromol), and assayed over 10 concentrations with a maximum assay concentration of 0.1% DMSO. Automated fluorescence microscopy was carried out using a Molecular Devices ImageXpress Micro XL high-content imager, and images were collected with a 4× objective. 16-bit TIFF images were acquired and analyzed with MetaXpress 5.1.0.41 software.
Cell proliferation was measured by the fluorescence intensity of an incorporated nuclear dye. The output is referred to as the relative cell count, where the measured nuclear intensity is transformed to percent of control (POC) using the following formula:
Cellular response parameters were calculated using nonlinear regression to a sigmoidal single-site dose response model:
GI50 is the concentration needed to reduce the observed growth by half (midway between the curve maximum and the time zero value). […] In rare instances, values <0 or >10 may be observed. […] Curve-fitting, calculations, and report generation was performed using a custom data reduction engine and MathIQ based software (AIM).

Structure (SMILES) | EC50 (Homo sapiens) [nM] | GI50 (Homo sapiens) [nM] | IC50 (Homo sapiens, SK-NEP-1, read-out: Cell Count IC50) [nM] | Cell Count Activity Area
CO[C@H]1C[C@@H]2CC[C@@H](C)[C@@](O)(O2)C(=O)C(=O)N2CCCC[C@H]2C(=O)O[C@H]([C@H](C)C[C@@H]2CC[C@@H](O)[C@H](OC)C2)CC(=O)[C@H](C)/C=C(\C)[C@@H](O)[C@@H](OC)C(=O)[C@H](C)C[C@H](C)/C=C/C=C/C=C/1C [Rapamycin, reference compound] | 0.293 | 0.361 | 1.47 | 4.22
CN[C@@H]1C[C@H]2O[C@@](C)([C@@H]1OC)n1c3ccccc3c3c4c(c5c6ccccc6n2c5c31)C(=O)NC4 [Staurosporine, reference compound] | 48.2 | 36.5 | – | 2.78
